Source: US20070167526A1, “Topical mecamylamine formulations for ocular administration and uses thereof” (priority 2005, published 2007)

Tests used:
[1] = in vivo; settings: rabbit
Description: As used herein, the term “topically administered to a rabbit eye,” and cognates thereof, refers to the administration of a particular mecamylamine formulation, including formulations of pharmaceutically acceptable salts of mecamylamine, by applying 100 μL of the mecamylamine formulation to the cornea of each eye (2 drops of 50 μL each), wherein at the time of application the bottom eyelid is separated from the surface of the eye to make a pocket to ensure the entire dose is retained in contact with the eye. When the concentration of mecamylamine in plasma and in the retinal/choroidal tissue is to be measured in connection with the calculation of the ratio of the mecamylamine concentration in the retina/choroid versus the concentration of mecamylamine in plasma, the concentration of each is determined 1 hour after application of the formulation. The amount of mecamylamine present in plasma and the retina/choroid is determined by LC/MS/MS using internal standards of dextromethorphan and diphenhydramine and a standard of known concentration of mecamylamine. An exemplary method of administration of the topical formulation of mecamylamine is provided in Example 5. An exemplary LC/MS/MS method for determining the ratios described herein is given in detail in Example 6. When the mean maximum concentration of mecamylamine in plasma is to be determined, the concentration is again determined as described above and in Example 6. The term “mean maximum concentration of mecamylamine,” and its cognates, as used herein refers to the mean maximum concentration of mecamylamine measured in plasma when monitored over a 6 hour time period after administration of the formulation. When the mean total concentration of mecamylamine in plasma is to be determined, the concentration is again determined as described above and in Example 6. The term “total concentration of mecamylamine in plasma measured as the area under the curve,” (AUC) and cognates thereof, refers to summation of the areas under plot of the drug plasma versus time using a simple trapezoidal method with drug plasma time points taken to include 1, 3 and 6 hours after topical administration. Determination of AUC for corneal tissue, retinal/choroid tissue and aqueous humor is determined similarly. When the concentration of mecamylamine in plasma and in the corneal tissue is to be measured in connection with the calculation of the ratio of the mecamylamine concentration in the cornea (or aqueous humor) versus the concentration of mecamylamine in plasma, the concentration of each is determined 1 hour after application of 50 μl of the formulation. The amount of mecamylamine present in plasma and the cornea (or aqueous humor) is determined by LC/MS/MS using internal standards of dextromethorphan and diphenhydramine and a standard of known concentration of mecamylamine. An exemplary method of administration of the topical formulation of mecamylamine is provided in Example 5. An exemplary LC/MS/MS method for determining the ratios described herein is given in detail in Example 6.
A single dose of a polymer-free solution, gellan gum formulation and hypromellose formulation containing 3% mecamylamine hydrochloride, was instilled in the eyes of rabbits (Dutch-belted male rabbits (Convance, Denver, Pa.) minimum age 2 months and with weights of 1.6 to 1.8 kg). Two animals were euthanized 30 minutes, 1 hour or 3 hours after dosing.
Sample of blood and ocular tissue (obtained as described in previous examples) were analyzed for mecamylamine concentration using an LC MS/MS method up to 3 hours after dosing.
The area-under-the-curve (AUC) was calculated using a trapezoidal rule on a population pharmacokinetic basis (see Table 9).

[2] = Ocular bioavailability following intravenous administration (Example 2); assay type: in vivo, New Zealand White rabbit; settings: rabbit; 15 mg/kg i.v.; FIG. 3
Text: This study was designed to model the ocular bioavailability of mecamylamine when administered systemically. Rabbit eyes are the preferred model for in vivo modeling of ocular drugs, however, the rabbit is not the subject of choice for modeling oral bioavailability. However, systemic administration does emulate orally administered mecamylamine to a reasonable approximation since mecamylamine has rapid absorption and high oral bioavailability. Therefore, intravenous injection was used to model ocular bioavailability of mecamylamine administered systemically, in order to determine the deposition of mecamylamine to the plasma, vitreous and posterior tissues (retina/choroid) of the eye from the blood.
The study comprised 2 groups (each N=6, 12 rabbits total) of male NZW (New Zealand White) rabbits weighing approximately 2.5-3 kg and obtained from Kralek Farms (Turlock, Calif.). Mecamylamine solution, prepared as described in Example 1, at a dose of 15 mg/kg was delivered via i.v. infusion as either a short infusion (1 hr) or slow infusion (6 hr) in rabbits sedated by ketamine/xylazine, with the slow infusion intended to model controlled systemic release of the mecamylamine.
For both groups, samples of the vitreous(≧0.1 ml) and plasma were withdrawn at 6 time points: pre-dose, 30 min, 1, 2, 4, and 6 hr. At 6 hours, all animals were sacrificed and vitreous and retinal tissues were collected. The total amount of mecamylamine administered during each infusion was the same, based on the weight of the individual rabbit.
The concentrations of mecamylamine present in the various samples were analyzed as described in Example 6, below.

CNC1(C)C2CCC(C2)C1(C)C (centres unmarked) [mecamylamine, N-2,3,3-tetramethylbicyclo(2.2.1)heptan-2-amine]
Kp at 1 h ([1]; male, Dutch-belted, in vivo): ≥ 1000 | ratio of the concentration of mecamylamine in the aqueous humor versus plasma ([1]; male, Dutch-belted, in vivo, 1 h): at least 50:1 | AUC ([1]; male, Dutch-belted, in vivo, topical or ocular): < 85 ng·h/mL | safety issues during the study ([1]; single ocular dose): No safety issues arose | amount of mecamylamine reaching the retina/choroid, long infusion versus short infusion [2]: more than 2 fold
